From patent US20220289746A1, “PYRROLIDINE DERIVATIVES” (Hoffmann-La Roche Inc., priority 2019, published 2022) come the findings set out here.

In data set [1] the target is T1, human M4 receptor (Homo sapiens, UniProt P08173).
T1 sequence (P08173 1-479): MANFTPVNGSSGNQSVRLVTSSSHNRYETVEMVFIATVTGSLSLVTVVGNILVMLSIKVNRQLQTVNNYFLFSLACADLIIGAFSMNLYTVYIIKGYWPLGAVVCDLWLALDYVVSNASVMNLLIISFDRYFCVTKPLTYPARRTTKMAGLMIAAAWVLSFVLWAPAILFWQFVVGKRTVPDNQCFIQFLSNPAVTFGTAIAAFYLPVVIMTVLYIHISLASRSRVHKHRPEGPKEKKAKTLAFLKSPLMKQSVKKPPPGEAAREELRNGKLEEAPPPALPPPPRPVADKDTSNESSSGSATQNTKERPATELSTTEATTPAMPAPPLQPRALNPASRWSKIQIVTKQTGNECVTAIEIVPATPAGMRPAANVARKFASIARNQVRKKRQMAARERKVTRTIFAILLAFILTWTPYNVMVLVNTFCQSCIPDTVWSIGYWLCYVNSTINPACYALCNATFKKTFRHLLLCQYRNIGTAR
The experiment in a line: Calcium flux assay using fluorescent imaging (M4 PAM FLIPR assay). It counts as cell-based. Further details: expressed in transfected cells; host or cells: CHO (monoclonal line, clone 2). The settings on record: CHO cells expressing human M4+Gqi5, acetylcholine EC20. Summed up: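 CHO cells stably expressing human M4 with Gqi5 were loaded with 2 μM Fluo-4-AM for about 90 min at 37 °C, in HBSS/20 mM HEPES pH 7.3/2.5 mM probenecid. For PAM mode, compound was pre-incubated 15 min before an EC20 acetylcholine challenge; calcium read on FDSS 7000. EC50 and efficacy are relative to 3 μM acetylcholine (EC100), four-parameter fit.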
A general note: A change in cytosolic calcium serves as a functional read-out for many receptors and channels.

The target in data set [2] is T1, human M4 receptor. The data set can be described thus: cAMP assay for M4 positive allosteric modulators (M4 PAM cAMP assay). In kind it is cell-based. Details: expressed in transfected cells; host or cells: CHO-K1. The settings on record: Table 1; CHO-K1 cells expressing human M4; forskolin 7.5 μM + acetylcholine EC20 (0.2 nM). Summed up:
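CHO-K1 cells stably expressing untagged human M4 pre-treated 15 min at 37 °C with compound plus IBMX, then stimulated 30 min with 7.5 μM forskolin and EC20 acetylcholine (0.2 nM). cAMP read by TR-FRET; normalised to 2 nM acetylcholine plus forskolin as 100%, sigmoidal fit giving EC50 and % efficacy.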
A general note: cAMP levels reflect the balance of adenylyl cyclase and phosphodiesterase activity.

The subject of a further data set is liver cells. The data set can be described thus: Determination of the in vitro clearance in liver cells. It counts as in vitro ADME. The settings on record: for clearance values reduced compared to clearance values of examples P1, P2 and P55: in vitro clearance, relative to reference compounds; for Clearance: in vitro intrinsic clearance, liver cells (hepatocyte cultures), 37° C. The protocol: Determination of the In Vitro Clearance
Incubations of a test compound at different concentrations were performed in 96 well plates containing liver cells (5% CO2 atmosphere and 37° C.). At defined time points, either cell medium was taken or the whole well was quenched with acetonitrile containing an internal standard. Samples are then cooled and centrifuged before analysis by LC-MS/MS. Different enzyme markers (Cyp3A4 substrates Midazolam, Quinidin, CYP2B6 Buproprion, CYP2D6 Dextromethorphan, CYP2C9 Tolbutamide, FMO substrate Benzydamine, UGT substrate Raloxifene) for assessing the metabolic activity of the hepatocyte cultures were used as quality control.
Log peak area ratios (test compound peak area/internal standard peak area) or concentrations were plotted against incubation time and a linear fit made to the data with emphasis upon the initial rate of compound disappearance. The slope of the fit is then used to calculate the intrinsic clearance:
Additionally, the intrinsic clearance can also be deduced by the measured rates of metabolite formation.

Usually EC50 stands for the midpoint of the concentration-response curve. Take `Cc1nc2c(c(C)c1Cl)CN(C(=O)[C@@H]1CCN(c3ccncn3)C1)C2` [Example 2, (3-chloro-2,4-dimethyl-5,7-dihydropyrrolo[3,4-b]pyridin-6-yl)-[(3R)-1-pyrimidin-4-ylpyrrolidin-3-yl]methanone]: on human M4 receptor [1] (Table 1), the EC50 was found to be 61 nM. In addition, the EC50 at human M4 receptor [2] is 79 nM. Moreover, in the data set with liver cells, the “clearance values reduced compared to clearance values of examples P1, P2 and P55” value stood at 50%; the Clearance worked out at 3.5 μl/min/1 * 10^6 cells.

Regarding `COCc1nc2c(c(C)c1Cl)CN(C(=O)[C@@H]1CCN(c3ccncn3)C1)C2` [Example 55, [3-chloro-2-(methoxymethyl)-4-methyl-5,7-dihydropyrrolo[3,4-b]pyridin-6-yl]-[(3R)-1-pyrimidin-4-ylpyrrolidin-3-yl]methanone], the EC50 on human M4 receptor [1] (Table 1) was determined as 42 nM. The EC50 at human M4 receptor [2] was determined as 192 nM. In the data set on liver cells, the “clearance values reduced compared to clearance values of examples P1, P2 and P55” value is recorded as 50%; the Clearance is given as 2.1 μl/min/1 * 10^6 cells.

As for `Cc1nc2c(c(C)c1Cl)CN(C(=O)[C@@H]1CCN(c3cc(C(F)F)ncn3)C1)C2` [Example 54, (3-chloro-2,4-dimethyl-5,7-dihydropyrrolo[3,4-b]pyridin-6-yl)-[(3R)-1-[6-(difluoromethyl)pyrimidin-4-yl]pyrrolidin-3-yl]methanone], the values for the EC50 on human M4 receptor [1] (Table 1) and at human M4 receptor [2] were 247 nM and 444 nM, respectively.

Turning to `Cc1nc2c(c(C)c1Cl)CN(C(=O)[C@@H]1CCN(c3cnc(C#N)cn3)C1)C2` [Example 44, 5-[(3R)-3-(3-chloro-2,4-dimethyl-5,7-dihydropyrrolo[3,4-b]pyridine-6-carbonyl)pyrrolidin-1-yl]pyrazine-2-carbonitrile], the values for the EC50 on human M4 receptor [1] (Table 1) and at human M4 receptor [2] were 1110 nM and 1280 nM, respectively.

As for `COc1cc(N2CC[C@@H](C(=O)N3Cc4nc(C)c(Cl)c(C)c4C3)C2)ncn1` [Example 29, (3-chloro-2,4-dimethyl-5,7-dihydropyrrolo[3,4-b]pyridin-6-yl)-[(3R)-1-(6-methoxypyrimidin-4-yl)pyrrolidin-3-yl]methanone], the EC50 at human M4 receptor [1] (Table 1) turned out to be 591 nM; at human M4 receptor [2] it was 951 nM.

For `COc1cc(N2CC[C@@H](C(=O)N3Cc4nc(C)c(Cl)c(C)c4C3)C2)ccn1` [Example 22, (3-chloro-2,4-dimethyl-5,7-dihydropyrrolo[3,4-b]pyridin-6-yl)-[(3R)-1-(2-methoxy-4-pyridyl)pyrrolidin-3-yl]methanone], the EC50 at human M4 receptor [1] (Table 1) came to 677 nM; on human M4 receptor [2], 507 nM.

Regarding `Cc1ccnc(N2CC[C@@H](C(=O)N3Cc4nc(C)c(Cl)c(C)c4C3)C2)n1` [Example 49, (3-chloro-2,4-dimethyl-5,7-dihydropyrrolo[3,4-b]pyridin-6-yl)-[(3R)-1-(4-methylpyrimidin-2-yl)pyrrolidin-3-yl]methanone], the half-maximal effective concentration (EC50) at human M4 receptor [1] (Table 1) amounted to 1670 nM; on human M4 receptor [2] it was 3350 nM.

As for `Cc1ccncc1N1CC[C@@H](C(=O)N2Cc3nc(C)c(Cl)c(C)c3C2)C1` [Example 13, (3-chloro-2,4-dimethyl-5,7-dihydropyrrolo[3,4-b]pyridin-6-yl)-[(3R)-1-(4-methyl-3-pyridyl)pyrrolidin-3-yl]methanone], the EC50 on human M4 receptor [1] (Table 1) worked out at 528 nM; on human M4 receptor [2], 674 nM.

`Cc1ncccc1N1CC[C@@H](C(=O)N2Cc3nc(C)c(Cl)c(C)c3C2)C1` [Example 12, (3-chloro-2,4-dimethyl-5,7-dihydropyrrolo[3,4-b]pyridin-6-yl)-[(3R)-1-(2-methyl-3-pyridyl)pyrrolidin-3-yl]methanone]: the EC50 on human M4 receptor [1] (Table 1) came to 1300 nM; at human M4 receptor [2] it was 1260 nM.

As for `CNc1ncc(N2CC[C@@H](C(=O)N3Cc4nc(C)c(Cl)c(C)c4C3)C2)cn1` [Example 35, (3-chloro-2,4-dimethyl-5,7-dihydropyrrolo[3,4-b]pyridin-6-yl)-[(3R)-1-[2-(methylamino)pyrimidin-5-yl]pyrrolidin-3-yl]methanone], the EC50 at human M4 receptor [1] (Table 1) is 1060 nM; at human M4 receptor [2] it was 817 nM.

On to `Cc1nc2c(c(C)c1Cl)CN(C(=O)[C@@H]1CCN(c3cnc(C4COC4)nc3)C1)C2` [Example 34, (3-chloro-2,4-dimethyl-5,7-dihydropyrrolo[3,4-b]pyridin-6-yl)-[(3R)-1-[2-(oxetan-3-yl)pyrimidin-5-yl]pyrrolidin-3-yl]methanone], for which the 50% effective concentration (EC50) on human M4 receptor [1] (Table 1) came out at 575 nM; at human M4 receptor [2], 603 nM.

For the compound `Cc1nc2c(c(C)c1Cl)CN(C(=O)[C@@H]1CCN(c3cccnn3)C1)C2` [Example 39, (3-chloro-2,4-dimethyl-5,7-dihydropyrrolo[3,4-b]pyridin-6-yl)-[(3R)-1-pyridazin-3-ylpyrrolidin-3-yl]methanone], the results for the EC50 on human M4 receptor [1] (Table 1) and at human M4 receptor [2] were 2520 nM and 2200 nM, respectively.

For `Cc1nc2c(c(C)c1Cl)CN(C(=O)[C@@H]1CCN(c3ccncc3)C1)C2` [Example 3, (3-chloro-2,4-dimethyl-5,7-dihydropyrrolo[3,4-b]pyridin-6-yl)-[(3R)-1-(4-pyridyl)pyrrolidin-3-yl]methanone], the EC50 is 489 nM at human M4 receptor [1] (Table 1) and 769 nM at human M4 receptor [2].

With `COCc1nc2c(c(C)c1Cl)CN(C(=O)[C@@H]1CCN(c3cccnc3)C1)C2` [Example 56, [3-chloro-2-(methoxymethyl)-4-methyl-5,7-dihydropyrrolo[3,4-b]pyridin-6-yl]-[(3R)-1-(3-pyridyl)pyrrolidin-3-yl]methanone], the 50% effective concentration (EC50) was 486 nM on human M4 receptor [1] (Table 1) and 80 nM at human M4 receptor [2].

With `Cc1nc2c(c(C)c1Cl)CN(C(=O)[C@@H]1CCN(c3ccc(C(F)(F)F)nn3)C1)C2` [Example 41, (3-chloro-2,4-dimethyl-5,7-dihydropyrrolo[3,4-b]pyridin-6-yl)-[(3R)-1-[6-(trifluoromethyl)pyridazin-3-yl]pyrrolidin-3-yl]methanone], the EC50 at human M4 receptor [1] (Table 1) amounted to 2010 nM; at human M4 receptor [2], 5120 nM.

Regarding `Cc1nc2c(c(C)c1Cl)CN(C(=O)[C@@H]1CCN(c3ccnc(C(F)F)c3)C1)C2` [Example 20, (3-chloro-2,4-dimethyl-5,7-dihydropyrrolo[3,4-b]pyridin-6-yl)-[(3R)-1-[2-(difluoromethyl)-4-pyridyl]pyrrolidin-3-yl]methanone], the EC50 came to 181 nM on human M4 receptor [1] (Table 1) and 80 nM on human M4 receptor [2].

`COCc1nc2c(c(C)c1Cl)CN(C(=O)CC1CN(c3ccncn3)C1)C2` [Example P55, 1-[3-chloro-2-(methoxymethyl)-4-methyl-5,7-dihydropyrrolo[3,4-b]pyridin-6-yl]-2-(1-pyrimidin-4-ylazetidin-3-yl)ethanone, reference compound]: the concentration giving a half-maximal response (EC50) on human M4 receptor [1] (Table 2) came to 50 nM. Also, the Clearance with liver cells was found to be 5.1 μl/min/1 * 10^6 cells.

Turning to `Cc1nc2c(c(C)c1Cl)CN(C(=O)[C@@H]1CCN(c3cncc(S(C)(=O)=O)c3)C1)C2` [Example 19, (3-chloro-2,4-dimethyl-5,7-dihydropyrrolo[3,4-b]pyridin-6-yl)-[(3R)-1-(5-methylsulfonyl-3-pyridyl)pyrrolidin-3-yl]methanone], the values for the EC50 on human M4 receptor [1] (Table 1) and at human M4 receptor [2] were 442 nM and 379 nM, respectively.

In the case of `Cc1cc(N2CC[C@@H](C(=O)N3Cc4nc(C)c(Cl)c(C)c4C3)C2)cnn1` [Example 52, (3-chloro-2,4-dimethyl-5,7-dihydropyrrolo[3,4-b]pyridin-6-yl)-[(3R)-1-(6-methylpyridazin-4-yl)pyrrolidin-3-yl]methanone], the EC50 at human M4 receptor [1] (Table 1) came out at 527 nM; on human M4 receptor [2], 1160 nM.

With `Cc1nc2c(c(C)c1Cl)CN(C(=O)[C@@H]1CCN(c3cncc(C(F)F)c3)C1)C2` [Example 15, (3-chloro-2,4-dimethyl-5,7-dihydropyrrolo[3,4-b]pyridin-6-yl)-[(3R)-1-[5-(difluoromethyl)-3-pyridyl]pyrrolidin-3-yl]methanone], the 50% effective concentration (EC50) is 306 nM on human M4 receptor [1] (Table 1) and 346 nM at human M4 receptor [2].
